Laboratory results from article PMC11215771 (Journal of Medicinal Chemistry, 2024).

Key:
[1] = molecular target: T1, hBACE1 fused to EGFP or mCherry in HEK293T cells (Homo sapiens, UniProt P56817); experiment: Staining of transfected HEK293T cells, confocal imaging: BACE1; assay type: cell-based; settings: for staining of BACE1 after preincubation with unconjugated C3: living HEK293T, preincubation with 2 μM C3
T1 construct: expressed in transfected cells; host or cells: HEK293T
Description: Next, we explored the performance of the new Alexa-C3 compounds in living cells. Because of the rather hydrophilic properties, we exclusively targeted the cell membrane. To prevent intracellular accumulation, we first performed stainings at 4 °C arresting ATP-dependent endocytosis. […] All of the constructs were tagged at the C-terminus with either EGFP or mCherry to visualize subcellular expression. […] With these experiments, we want to exclude that a lack of staining is caused by an impaired accessibility of the protein by Alexa-C3 compounds. […] We then tested samples with BACE1 expression after fixation of the cells with paraformaldehyde (PFA).
(D) All conjugates were also probed on cells fixed with 4% paraformaldehyde (PFA) for 15 min prior to staining. […] Scale bars represent 5 μm (A–D) and 20 μm (E). […] Samples were excited at 488, 561, and 633 nm, respectively.
HEK293T cells (ATCC accession number CRL-11268) were maintained in Dulbecco's modified Eagle's medium (Sigma-Aldrich D6046) with 1g/L glucose, supplemented with 10% FCS (Merck) and 1% penicillin/streptomycin (PAA). CHO-K1 cells (ATCC #CCL-61) were maintained in modified phenol red free RPMI-1640 medium (Sigma-Aldrich, R7509), supplemented with 2 mM L-glutamine (Sigma-Aldrich, G7513), and 10% FCS (Merck). Cells were cultured at 37 °C in a 5% CO2 atmosphere. The following plasmids were used for transfection with the amount of DNA indicated (per 35 mm Petri dish): hBACE1 (NM_012104.4), 50 ng for single molecule recordings, 200 ng otherwise; hBACE1 fused to EGFP or mCherry, 75 ng; hBACE1 D289N fused to EGFP or mCherry, 75 ng; hBACE1 D289N, 200–400 ng; hBACE2 (NM_012105.3) fused to EGFP, 75 ng; hCathepsinD (HsCD00438327), Harvard PlasmID, 75 ng. Transfection was performed 24 h after plating using jetPEI (Polyplus) according to the manufacturer’s protocol.
For labeling, we plated HEK293T cells onto sterile 18 mm 1.5H borosilicate coverslips (VWR), coated with poly-D-lysine (Sigma). […] In addition, some cells were also fixed with 4% PFA or permeabilized with HBS + 50 μg/mL of Saponin for 15 min prior to staining as stated in the figure legend. After staining, live cells were washed with HBS twice. Confocal imaging was conducted at room temperature in HBS using the 63× objective and the pinhole set to 1 AU. Confocal imaging was performed 24 h after transfection.

endogenous BACE1 = molecular target: T2, endogenous BACE1 (Mus musculus, UniProt P56818); experiment: Staining of endogenous BACE1 in brain slices; settings: 250 nM probe, BACE1+/+ vs BACE1–/– mice
T2 construct: from tissue; host or cells: mouse brain cryosections (hippocampus, cerebellum), C57BL/6J background, P16
From the text: Areas with high expression such as the hippocampal MFB[38] or cerebellar Purkinje cells[39],[40] are readily distinguished. However, all primary anti-BACE1 antibodies tested in our lab produced a significant background in samples of BACE1 knockout mice.[20],[23] […] We wondered if our new Alexa-C3 compounds could outperform existing probes in endogenous tissue. […] Close to the hilus, we depicted the MFB additionally at higher magnification (Figure 4B). […] From this set of data and from previous experiments using anti-BACE1 antibodies and SiR-BACE1 we calculated the ratio of the signal in the hilar region to the signal in the molecular layer (Figure 4C), since the molecular layer (red box in Figure 4C) is more affected by background fluorescence due to the relatively low BACE1 expression level.
(A) Images of the hippocampus depict the mossy fiber bundle (MFB) with high BACE1 expression with the intervening CA3 pyramidal cell layer (CA3) and proximal dentate gyrus (DG). […] The scale bar represents 200 μm. […]
For quantification of hippocampal BACE1 staining, mean intensities of the mossy fiber bundle were divided by the mean intensity of the molecular layer of the dentate gyrus. Mean intensities were calculated from rectangular regions of interest. In addition, analysis was performed on images of hippocampal BACE1 labeling with SiR-BACE1 recorded previously.[31]

[2] = FCS of free Alexa-C3 in HBS in the absence of BACE1; settings: 100 nM in HBS, pH 5, no BACE1, mean ± SD
[3] = molecular target: recombinant human BACE1 protein (amino acids 1–457, extracellular domain) (Homo sapiens, UniProt P56817); experiment: Fluorescence correlation spectroscopy (FCS) with BACE1 ECD in solution
recombinant human BACE1 protein (amino acids 1–457, extracellular domain), sequence (P56817 22-457): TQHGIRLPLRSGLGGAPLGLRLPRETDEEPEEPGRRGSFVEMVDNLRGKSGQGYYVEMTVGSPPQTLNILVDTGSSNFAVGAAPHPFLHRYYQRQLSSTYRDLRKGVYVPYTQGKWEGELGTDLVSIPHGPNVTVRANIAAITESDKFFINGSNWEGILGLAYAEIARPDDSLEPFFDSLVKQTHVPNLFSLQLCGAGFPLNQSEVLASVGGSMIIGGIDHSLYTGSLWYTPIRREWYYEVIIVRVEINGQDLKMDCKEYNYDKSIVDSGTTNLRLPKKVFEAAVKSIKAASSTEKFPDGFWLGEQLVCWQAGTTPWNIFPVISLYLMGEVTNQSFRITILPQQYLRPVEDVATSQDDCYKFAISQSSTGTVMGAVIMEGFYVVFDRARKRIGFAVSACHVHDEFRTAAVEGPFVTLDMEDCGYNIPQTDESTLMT

T1 sequence (P56817 46-501): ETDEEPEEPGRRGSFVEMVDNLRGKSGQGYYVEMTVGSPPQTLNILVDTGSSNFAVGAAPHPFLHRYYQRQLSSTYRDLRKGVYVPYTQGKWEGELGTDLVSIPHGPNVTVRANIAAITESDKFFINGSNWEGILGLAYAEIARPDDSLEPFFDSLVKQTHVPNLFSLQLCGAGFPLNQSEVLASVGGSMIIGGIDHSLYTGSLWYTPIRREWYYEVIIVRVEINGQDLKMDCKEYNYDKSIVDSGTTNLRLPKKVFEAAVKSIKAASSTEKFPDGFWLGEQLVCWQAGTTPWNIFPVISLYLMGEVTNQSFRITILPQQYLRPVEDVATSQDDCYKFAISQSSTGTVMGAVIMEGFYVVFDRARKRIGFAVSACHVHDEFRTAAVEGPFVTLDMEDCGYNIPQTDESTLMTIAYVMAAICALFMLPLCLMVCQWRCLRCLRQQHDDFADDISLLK
T2 sequence (P56818 46-501): as the sequence (P56817 46-501) above, with P6S, V162I, L165I, S180T, V182A, I340V, L393A, Q443H counted along it

staining of BACE1 after preincubation with unconjugated C3 [1]	labeling of endogenous BACE1 in brain slices (endogenous BACE1)	diffusion time constant of free probe [2] [μs]	EC50 [3] [nM]	diffusion time constant of the second (BACE1-bound, slow) population ([3]; 100 nM probe with BACE1 ECD, pH 5, mean ± SEM, n = 3 preparations) [μs]	specificity in permeabilized cells ([1]; 50 μg/mL saponin prior to staining, 100 nM probe)	staining of BACE1 after fixation with PFA ([1]; HEK293T fixed with 4% PFA for 15 min prior to staining)	Compound	additional slow diffusing component with BACE1 ECD ([3]; 100 nM probe with BACE1 ECD, pH 5)
no appreciable fluorescence	labeled BACE1 in a typical pattern	35 ± 3	9.77	310 ± 10	–	–	C[C@@H](NC(=O)c1cc(C(=O)N[C@@H](Cc2ccccc2)[C@H](O)CNC2CC2)cc(N(C)S(=O)(=O)CCCNC(=O)c2ccc(C(=O)O)c(-c3c4ccc(=N)c(S(=O)(=O)O)c-4oc4c(S(=O)(=O)O)c(N)ccc34)c2)c1)c1ccccc1 [2-(6-Amino-3-iminio-4,5-disulfo-3H-xanthen-9-yl)-4-((3-(N-(3-(((2S,3R)-4-(cyclopropylamino)-3-hydroxy-1-phenylbutan-2-yl)carbamoyl)-5-(((R)-1-phenylethyl)carbamoyl)phenyl)-N-methylsulfamoyl)propyl)carbamoyl)benzoate]	–
absence of any staining	unsuccessful	53 ± 18	–	–	the same specificity was observed	did not yield a considerable signal	C[C@@H](NC(=O)c1cc(C(=O)N[C@@H](Cc2ccccc2)[C@H](O)CNC2CC2)cc(N(C)S(=O)(=O)CCCNC(=O)CCCCCC2(C)C(/C=C/C=C/C=C3/N(CCCS(=O)(=O)O)c4ccc(S(=O)(=O)O)cc4C3(C)C)=[N+](CCCS(=O)(=O)[O-])c3ccc(S(=O)(=O)O)cc32)c1)c1ccccc1 (some centres unmarked)	no additional slow component was observed
